Test results taken from article PMC11219871, “Epigenetic-based differentiation therapy for Acute Myeloid Leukemia” (Nature Communications, 2024).
Several values for one entry are separate records, joined by “and”; a condition that tells them apart may be missing. Equal values may be shown once. Read-outs that look alike come from different tables or passages of the source.

Experiments:
[1] = Liver microsomal stability; type: in vitro ADME; settings: read-out: Liver Microsomal Stability Estimation T1/2
Experimental: This study was conducted at Wuxi (http://www.wuxi.com/). […] A 5-μL aliquot of stock solution of test compound (10 mM; 100% DMSO) was diluted in 495 μL of […] (final concentration of 100 μM, 99% MeOH). Then, 50 μL of this intermediate solution was diluted in 450 μL of 100 mM potassium phosphate buffer to a concentration of 10 μM (working solution, 9.9% MeOH). The β-nicotinamide adenine dinucleotide phosphate reduced form (NADPH) regenerating system also contained tetrasodium salt, NADPH•4Na (Sigma, Cat.# No.00616). Human liver microsomes were obtained from Corning (Cat.#452117), and C57 mouse liver microsomes from Xenotech (Cat.#M5000), at a final concentration of 0.5 mg protein/mL. A volume of 10 μL of working solution of test and control compounds (testosterone, diclofenac and propafenone) and 80 μL/well microsome solution were added to a 96-well plate and incubated for 10 min at 37 °C. The reaction was started by the addition of 10 μL of NADPH regenerating system and stopped by the addition of 300 μL of stop solution (acetonitrile at 4 °C, including 100 ng/mL tolbutamide and 100 ng/mL of labetalol as internal standard) at different incubation times (0, 5, 10, 20, 30, and 60 min). Then, the samples were shaken for 10 min and centrifuged at 1699 g for 20 min at 4 °C. An aliquot of supernatant (100 μL) was transferred from each well and mixed with 300 μL of ultra-pure water before submitting to LC-MS/MS analysis. Concentrations of test and control compounds were quantified by LC-MS/MS using a peak area ratio of analyte/internal standard, and the percent loss of the parent compound was calculated at each time point to determine the half-life (t1/2, min). Experiments were performed in duplicate.

CACO-2 permeability = type: in vitro ADME; settings: human
Experimental: This study was conducted at Wuxi (http://www.wuxi.com/). Caco-2 cells (ATCC) were seeded onto polyethylene membranes in 96-well BD insert plates at 1 × 10^5 cells/cm^2, and the medium was changed every 4 days until the 21st to 28th day for confluent cell monolayer formation. Test compounds were diluted with transport buffer (HBSS with 10 mM HEPES at pH 7.4 ± 0.05) to a concentration of 2 µM (final DMSO concentration adjusted to <1%) and tested bi-directionally to investigate P-glycoprotein-mediated efflux in duplicate. Controls: digoxin (10 μM, bi-directionally), nanodolol and metoprolol (2 μM, apical, A, to basolateral, B). The permeation was assessed over a 120-minute incubation at 37 °C ± 1 °C and 5% CO2 at saturated humidity without shaking. Samples were mixed with acetonitrile containing internal standard and centrifuged at 1520 g for 10 min. Then, 100-μL aliquots of supernatant solutions were diluted with 100 μL of pure water. Concentrations of test and control compounds in starting solution, donor solution, and receiver solution were quantified by LC-MS/MS using a peak area ratio of analyte to internal standard. Permeation of lucifer yellow through the monolayer was measured to evaluate the cellular integrity. The results are the average of two biological replicates.

[2] = test system: LINE-1 DNA methylation in MOLM-13; experiment: LINE-1 pyrosequencing; type: cell-based, human
Experimental: (§1) DNA methylation of the repetitive element LINE-1 was analyzed using a pyrosequencing technique. […] Cells were washed twice with PBS, and then genomic DNA was extracted using a DNA Kit (Nucleo Spin Tissue, Cat No 74095250, Macherey-Nagel) following the manufacturer's instructions. DNA purity and concentration were measured using a NanoDrop spectrophotometer (Thermo Scientific). A 1 μg amount of genomic DNA was treated and modified using a CpGenome DNA modification Kit (Cat No S7820, Chemicon International) following the manufacturer's instructions. […] [NT]) in a final volume of 25 μL. The resulting biotinylated PCR products were immobilized to Streptavidin Sepharose ® High-Performance beads (GE Healthcare) and processed to yield high-quality ssDNA using the PyroMark Vacuum Prep Workstation (Biotage) according to the manufacturer's instructions. The pyrosequencing reactions were performed using the PyromarkTM ID (Biotage), and sequence analysis was performed using the PyroQ-CpG analysis software (Biotage).

[3] = test system: LINE-1 DNA methylation in ML-2; experiment: LINE-1 pyrosequencing; type: cell-based, human
Experimental: as §1

[4] = test system: LINE-1 DNA methylation in HL-60; experiment: LINE-1 pyrosequencing; type: cell-based, human
Experimental: as §1

[5] = test system: LINE-1 DNA methylation in MV4-11; experiment: LINE-1 pyrosequencing; type: cell-based, human
Experimental: as §1

COc1cc2nc(-c3ccc(C)o3)cc(NCC3CCN(c4ncc(C(=O)NO)cn4)CC3)c2cc1OC [CM-444, 2-[4-[[[6,7-dimethoxy-2-(5-methyl-2-furyl)-4-quinolyl]amino]methyl]-1-piperidyl]pyrimidine-5-carbohydroxamic acid]
half-life at 1 µM ([1]; C57, mouse liver microsomes): 18.4 min | half-life at 1 µM ([1]; human liver microsomes): 28.8 min | efflux ratio at 120 min, 2 µM (CACO-2 permeability; Caco-2, pH 7.4): > 1050 | Papp A→B at 120 min, 2 µM (CACO-2 permeability; Caco-2, pH 7.4, A to B): < 0.01 ×10⁻⁶ cm/s | LINE-1 methylation (%) CG Position 1 ([2]; MOLM-13, 48 hours): 100% | LINE-1 methylation (%) CG Position 2 ([2]; MOLM-13, 48 hours): 83% and 79% | LINE-1 methylation (%) CG Position 3 ([2]; MOLM-13, 48 hours): 100% | LINE-1 methylation (%) CG Position 4 ([2]; MOLM-13, 48 hours): 100% | LINE-1 methylation (%) CG Position 5 ([2]; MOLM-13, 48 hours): 74% and 78% | LINE-1 methylation (%) CG Position 1 ([2]; MOLM-13, 5 days): 62% | LINE-1 methylation (%) CG Position 2 ([2]; MOLM-13, 5 days): 60% and 68% | LINE-1 methylation (%) CG Position 3 ([2]; MOLM-13, 5 days): 69% and 73% | LINE-1 methylation (%) CG Position 4 ([2]; MOLM-13, 5 days): 74% and 76% | LINE-1 methylation (%) CG Position 5 ([2]; MOLM-13, 5 days): 53% and 55% | LINE-1 methylation (%) CG Position 1 ([3]; ML-2, 48 hours): 65% and 67% | LINE-1 methylation (%) CG Position 2 ([3]; ML-2, 48 hours): 73% | LINE-1 methylation (%) CG Position 3 ([3]; ML-2, 48 hours): 77% and 81% | LINE-1 methylation (%) CG Position 4 ([3]; ML-2, 48 hours): 86% and 88% | LINE-1 methylation (%) CG Position 5 ([3]; ML-2, 48 hours): 56% and 64% | LINE-1 methylation (%) CG Position 1 ([3]; ML-2, 10 days): 61% and 57% | LINE-1 methylation (%) CG Position 2 ([3]; ML-2, 10 days): 48% and 46% | LINE-1 methylation (%) CG Position 3 ([3]; ML-2, 10 days): 66% and 62% | LINE-1 methylation (%) CG Position 4 ([3]; ML-2, 10 days): 64% and 60% | LINE-1 methylation (%) CG Position 5 ([3]; ML-2, 10 days): 46% and 44% | LINE-1 methylation (%) CG Position 1 ([4]; 48 h, 0.27 µM): 97% | LINE-1 methylation (%) CG Position 2 ([4]; 48 h, 0.27 µM): 83% | LINE-1 methylation (%) CG Position 3 ([4]; 48 h, 0.27 µM): 100% | LINE-1 methylation (%) CG Position 4 ([4]; 48 h, 0.27 µM): 100% | LINE-1 methylation (%) CG Position 5 ([4]; 48 h, 0.27 µM): 73% | LINE-1 methylation (%) CG Position 1 Replicate 1 ([4]; HL-60, 48 h): 96% | LINE-1 methylation (%) CG Position 1 Replicate 2 ([4]; HL-60, 48 h): 98% | LINE-1 methylation (%) CG Position 2 Replicate 1 ([4]; HL-60, 48 h): 84% | LINE-1 methylation (%) CG Position 2 Replicate 2 ([4]; HL-60, 48 h): 82% | LINE-1 methylation (%) CG Position 3 Replicate 1 ([4]; HL-60, 48 h): 100% | LINE-1 methylation (%) CG Position 3 Replicate 2 ([4]; HL-60, 48 h): 100% | LINE-1 methylation (%) CG Position 4 Replicate 1 ([4]; HL-60, 48 h): 100% | LINE-1 methylation (%) CG Position 4 Replicate 2 ([4]; HL-60, 48 h): 100% | LINE-1 methylation (%) CG Position 5 Replicate 1 ([4]; HL-60, 48 h): 72% | LINE-1 methylation (%) CG Position 5 Replicate 2 ([4]; HL-60, 48 h): 74% | LINE-1 methylation (%) CG Position 1 ([4]; HL-60, 10 days): 77% and 81% | LINE-1 methylation (%) CG Position 2 ([4]; HL-60, 10 days): 66% and 70% | LINE-1 methylation (%) CG Position 3 ([4]; HL-60, 10 days): 71% and 75% | LINE-1 methylation (%) CG Position 4 ([4]; HL-60, 10 days): 86% and 88% | LINE-1 methylation (%) CG Position 5 ([4]; HL-60, 10 days): 65% and 63% | LINE-1 methylation (%) CG Position 1 ([5]; MV4-11, 48 hours): 83% and 85% | LINE-1 methylation (%) CG Position 2 ([5]; MV4-11, 48 hours): 79% and 77% | LINE-1 methylation (%) CG Position 3 ([5]; MV4-11, 48 hours): 99% and 97% | LINE-1 methylation (%) CG Position 4 ([5]; MV4-11, 48 hours): 100% | LINE-1 methylation (%) CG Position 5 ([5]; MV4-11, 48 hours): 70% and 66% | LINE-1 methylation (%) CG Position 1 ([5]; MV4-11, 5 days): 80% and 82% | LINE-1 methylation (%) CG Position 2 ([5]; MV4-11, 5 days): 79% and 77% | LINE-1 methylation (%) CG Position 3 ([5]; MV4-11, 5 days): 77% | LINE-1 methylation (%) CG Position 4 ([5]; MV4-11, 5 days): 91% and 89% | LINE-1 methylation (%) CG Position 5 ([5]; MV4-11, 5 days): 65% and 67%
